≈ marks a conversion by molar mass, not a printed value.
How the values were obtained:
Assay in all cases: MIC, broth microdilution (NCCLS)
[1] = system: Streptococcus pneumoniae Stpn_Mef S 3427; type: cell-based; settings: Table 7, Strain ID L (Table 6): S. pneumoniae Stpn_Mef S 3427
Method: (§1) Strains. The bacterial isolates listed in Table 4 were cultivated from −70° C. frozen stocks by two consecutive overnight passages (P1, P2) at 35° C. on 5% blood agar (Remel, Lenexa, Kans.). Chocolate agar (Remel) is used for Haemophilus influenzae. H. influenzae and Streptococcus pneumoniae are incubated in 5-10% CO2
(§2) Drug Stock Preparation. To determine the amount of solvent to be used to give the desired final concentration, the formula “weight obtained in mg/final concentration in mg/ml” will be used. It will give the amount of solvent in ml needed to be added to give the desired concentration. For example, if 2.5 mg/ml is the desired concentration and the weight of compound is 13.7 mg, then the amount of solvent to be added is […]. Methanol is used as the solvent to dissolve the test compounds. Further dilution of stock is done in sterile, deionized water. Drug stocks are kept frozen at −70° C., protected from light.
(§3) Susceptibility Testing. MICs are determined by the broth microdilution method in accordance with the NCCLS guidelines. In brief, organism suspensions are adjusted to a 0.5 McFarland standard to yield a final inoculum between 3×10^5 and 7×10^5 CFU/ml. Drug dilutions and inocula are made in sterile, cation adjusted Mueller-Hinton Broth (CAMHB) (Remel) for all but S. pneumoniae [CAMHB with 2-5% lysed horse blood (Remel)] and H. influenzae [Haemophilus Test Medium (Remel)]. An inoculum volume of 100 μl is added to wells containing 100 μl of broth with 2-fold serial dilutions of drug. All inoculated microdilution trays are incubated in ambient air at 35° C. for 18-24 hours, except for S. pneumoniae, and H. influenzae (both at 5-10% CO2).
(§4) Following appropriate incubation, the MIC is determined and the MIC is defined as the lowest concentration of the drug that prevented visible growth.
as §1, with “8” for “4”
(§5) Following appropriate incubation, the MIC is determined and the MIC is defined as the lowest concentration of the drug that prevented visible growth. […] Antibacterial activity of representative compounds of the invention were compared against telitromycin.

[2] = system: Streptococcus pyogenes Stpy_8668; type: cell-based; settings: Table 7, Strain ID E (Table 6): S. pyogenes Stpy_8668
Method: as §1, §2, §3, §4
as §1, with “8” for “4”
as §5

[3] = system: Streptococcus pneumoniae Stpn_49619; type: cell-based; settings: Table 7, Strain ID F (Table 6): S. pneumoniae Stpn_49619
Method: as §1, §2, §3, §4
as §1, with “8” for “4”
as §5

[4] = system: Streptococcus pneumoniae Stpn_297-749; type: cell-based; settings: Table 7, Strain ID G (Table 6): S. pneumoniae Stpn_297-749
Method: as §1, §2, §3, §4
as §1, with “8” for “4”
as §5

[5] = system: Streptococcus pneumoniae Stpn_280-962; type: cell-based; settings: Table 7, Strain ID H (Table 6): S. pneumoniae Stpn_280-962
Method: as §1, §2, §3, §4
as §1, with “8” for “4”
as §5

[6] = system: Enterococcus faecalis Enfa_29212; type: cell-based; settings: Table 7, Strain ID D (Table 6): E. faecalis Enfa_29212; in µg/mL (unit assumed)
Method: as §1, §2, §3, §4
as §1, with “8” for “4”
as §5

[7] = system: Haemophilus influenzae Hain_49247; type: cell-based; settings: Table 7, Strain ID M (Table 6): H. influenzae Hain_49247; unit assumed
Method: as §1, §2, §3, §4
as §1, with “8” for “4”
as §5

[8] = system: Staphylococcus epidermidis Step_14990; type: cell-based; settings: Table 7, Strain ID B (Table 6): S. epidermidis Step_14990; in µg/mL (unit assumed)
Method: as §1, §2, §3, §4
as §1, with “8” for “4”
as §5

[9] = system: Streptococcus pneumoniae Stpn_Erm S 4297; type: cell-based; settings: Table 7, Strain ID J (Table 6): S. pneumoniae Stpn_Erm S 4297
Method: as §1, §2, §3, §4
as §1, with “8” for “4”
as §5

[10] = system: S. pneumoniae Stpn_Erm 6849; type: cell-based, Streptococcus pneumoniae; settings: Table 7, Strain ID I (Table 6): S. pneumoniae Stpn_Erm 6849
Method: as §1, §2, §3, §4

Compound	MIC [1]	MIC [2]	MIC [3]	MIC [4]	MIC [5]	MIC [6]	MIC [7] [µg/mL]	MIC [8]	MIC ([9]; unit assumed) [µg/mL]	MIC [9]	MIC [10]
CC[C@H]1OC(=O)[C@H](C)C(=O)[C@H](C)[C@@H](OC2O[C@H](C)C[C@H](N(C)C)[C@H]2O)[C@@](C)(OC)C[C@@H](C)C(=O)[C@H](C)[C@H]2N(CCCCn3cnc4cccnc43)C(=O)O[C@]12CC (stereo partly drawn) [Example 14, (3aS,4R,7R,9R,10R,11S,13R,15R,15aR)-3a,4-DIETHYL-1-[4-(3H-IMIDAZO[4,5-B]PYRIDIN-3-YL)BUTYL]-11-METHOXY-7,9,11,13,15-PENTAMETHYL-2,6,8,14-TETRAOXOTETRADECAHYDRO-2H-OXACYCLOTETRADECINO[4,3-D][1,3]OXAZOL-10-YL-3,4,6-TRIDEOXY-3-(DIMETHYLAMINO)-D-XYLO-HEXOPYRANOSIDE]	=0.05	=0.05	=0.05	=0.05	=0.05						
CC[C@H]1OC(=O)[C@H](C)C(=O)[C@H](C)[C@@H](OC2O[C@H](C)C[C@H](N(C)C)[C@H]2O)[C@@](C)(OC)C[C@@H](C)C(=O)[C@H](C)[C@H]2N(CCCCc3ccnc4ccccc34)C(=O)O[C@]12CC (stereo partly drawn) [Example 15, (3aS,4R,7R,9R,10R,11S,13R,15R,15aR)-3a,4-DIETHYL-11-METHOXY-7,9,11,13,15-PENTAMETHYL-2,6,8,14-TETRAOXO-1-(4-QUINOLIN-4-YLBUTYL)TETRADECAHYDRO-2H-OXACYCLOTETRADECINO[4,3-D][1,3]OXAZOL-10-YL-3,4,6-TRIDEOXY-3-(DIMETHYLAMINO)-D-XYLO-HEXOPYRANOSIDE]	=0.05	=0.05	=0.05	=0.05	=0.05	0.1	3.13 (≈ 3.86 µM)	0.2	0.1 (≈ 0.123 µM)		
CC[C@H]1OC(=O)[C@H](C)C(=O)[C@H](C)[C@@H](OC2O[C@H](C)C[C@H](N(C)C)[C@H]2O)[C@@](C)(OC)C[C@@H](C)C(=O)[C@H](C)[C@H]2N(CCCCc3ccc4ccccc4n3)C(=O)O[C@]12CC (stereo partly drawn) [Example 18, (3aS,4R,7R,9R,10R,11S,13R,15R,15aR)-3a,4-diethyl-11-methoxy-7,9,11,13,15-pentamethyl-2,6,8,14-tetraoxo-1-(4-quinolin-2-ylbutyl)tetradecahydro-2H-oxacyclotetradecino[4,3-d][1,3]oxazol-10-yl-3,4,6-trideoxy-3-(dimethylamino)-D-xylo-hexopyranoside]	=0.05		=0.05	=0.05	=0.05						
CC[C@H]1OC(=O)[C@@](C)(F)C(=O)[C@H](C)[C@@H](OC2O[C@H](C)C[C@H](N(C)C)[C@H]2O)[C@@](C)(OC)C[C@@H](C)C(=O)[C@H](C)[C@H]2N(CCCC(C)(C)n3cnc(-c4cccnc4)c3)C(=O)O[C@]12CC (stereo partly drawn) [Example 32, (3aS,4R,7S,9R,10R,11S,13R,15R,15aR)-3a,4-diethyl-7-fluoro-11-methoxy-7,9,11,13,15-pentamethyl-1-[4-methyl-4-(4-pyridin-3-yl-1H-imidazol-1-yl)pentyl]-2,6,8,14-tetraoxotetradecahydro-2H-oxacyclotetradecino[4,3-d][1,3]oxazol-10-yl-3,4,6-trideoxy-3-(dimethylamino)-D-xylo-hexopyranoside]		=0.05	=0.05	=0.05	=0.05					=0.05	
CC[C@H]1OC(=O)[C@H](C)C(=O)[C@H](C)[C@@H](OC2O[C@H](C)C[C@H](N(C)C)[C@H]2O)[C@@](C)(OC)C[C@@H](C)C(=O)[C@H](C)[C@H]2N(CCCOc3cccc(-c4cccnc4)c3)C(=O)O[C@]12CC (stereo partly drawn) [Example 35, (3aS,4R,7R,9R,10R,11S,13R,15R,15aR)-3a,4-diethyl-11-methoxy-7,9,11,13,15-pentamethyl-2,6,8,14-tetraoxo-1-[3-(3-pyridin-3-ylphenoxy)propyl]tetradecahydro-1H-oxacyclotetradecino[4,3-d][1,3]oxazol-10-yl-3,4,6-trideoxy-3-(dimethylamino)-D-xylo-hexopyranoside]				=0.05	=0.05						=0.05
CC[C@H]1OC(=O)[C@H](C)C(=O)[C@H](C)[C@@H](OC2O[C@H](C)C[C@H](N(C)C)[C@H]2O)[C@@](C)(OC)C[C@@H](C)C(=O)[C@H](C)[C@H]2N(CCCC(C)(C)n3cnc4ncccc43)C(=O)O[C@]12CC (stereo partly drawn) [Example 37, (3aS,4R,7R,9R,10R,11S,13R,15R,15aR)-3a,4-diethyl-1-[4-(1H-imidazo[4,5-b]pyridin-1-yl)-4-methylpentyl]-11-methoxy-7,9,11,13,15-pentamethyl-2,6,8,14-tetraoxotetradecahydro-2H-oxacyclotetradecino[4,3-d][1,3]oxazol-10-yl-3,4,6-trideoxy-3-(dimethylamino)-D-xylo-hexopyranoside]		=0.05	=0.05	=0.05	=0.05						
CC[C@H]1OC(=O)[C@H](C)C(=O)[C@H](C)[C@@H](OC2O[C@H](C)C[C@H](N(C)C)[C@H]2O)[C@@](C)(OC)C[C@@H](C)C(=O)[C@H](C)[C@H]2N(CCCC(C)(C)n3cnc4cccnc43)C(=O)O[C@]12CC (stereo partly drawn) [Example 38, (3aS,4R,7R,9R,10R,11S,13R,15R,15aR)-3a,4-diethyl-1-[4-(3H-imidazo[4,5-b]pyridin-3-yl)-4-methylpentyl]-11-methoxy-7,9,11,13,15-pentamethyl-2,6,8,14-tetraoxotetradecahydro-2H-oxacyclotetradecino[4,3-d][1,3]oxazol-10-yl-3,4,6-trideoxy-3-(dimethylamino)-D-xylo-hexopyranoside]		=0.05	=0.05	=0.05	=0.05						
C=C[C@]12OC(=O)N(CCCCn3cnc(-c4cccnc4)c3)[C@@H]1[C@@H](C)C(=O)[C@H](C)C[C@](C)(OC)[C@H](OC1O[C@H](C)C[C@H](N(C)C)[C@H]1O)[C@@H](C)C(=O)[C@](C)(F)C(=O)O[C@@H]2CC (stereo partly drawn) [Example 49, (3aS,4R,7S,9R,10R,11S,13R,15R,15aR)-4-ethyl-7-fluoro-11-methoxy-7,9,11,13,15-pentamethyl-2,6,8,14-tetraoxo-1-[4-(4-pyridin-3-yl-1H-imidazol-1-yl)butyl]-3a-vinyltetradecahydro-1H-oxacyclotetradecino[4,3-d][1,3]oxazol-10-yl-3,4,6-trideoxy-3-(dimethylamino)-D-xylo-hexopyranoside]	=0.05	=0.05	=0.05	=0.05	=0.05					=0.05	
C=C[C@]12OC(=O)N(CCCC(C)(C)n3cnc(-c4cccnc4)c3)[C@@H]1[C@@H](C)C(=O)[C@H](C)C[C@](C)(OC)[C@H](OC1O[C@H](C)C[C@H](N(C)C)[C@H]1O)[C@@H](C)C(=O)[C@@H](C)C(=O)O[C@@H]2CC (stereo partly drawn) [Example 50, (3aS,4R,7R,9R,10R,11S,13R,15R,15aR)-4-ethyl-11-methoxy-7,9,11,13,15-pentamethyl-1-[4-methyl-4-(4-pyridin-3-yl-1H-imidazol-1-yl)pentyl]-2,6,8,14-tetraoxo-3a-vinyltetradecahydro-1H-oxacyclotetradecino[4,3-d][1,3]oxazol-10-yl-3,4,6-trideoxy-3-(dimethylamino)-D-xylo-hexopyranoside]		=0.05	=0.05	=0.05	=0.05					=0.05	

Source: patent US7332476B2, “Pyridyl substituted ketolide antibiotics” (Novartis AG, priority 2003, dated 2008)
